Measured values: patent publication US20090306062A1, “2,5-Disubstituted Piperidines” (priority 2006, published 2009)

The molecules below were run against T1, renin (Homo sapiens, UniProt P00797) (assay: in vitro test according to Nussberger et al.: formation of angiotensin I in human plasma, radioimmunoassay). Conditions: range stated for the listed examples together, read-out: IC50, inhibition of the formation of angiotensin I.
T1 construct: This test measures the formation of angiotensin I in human plasma; from tissue; host or cells: human plasma
T1 sequence (P00797 67-406): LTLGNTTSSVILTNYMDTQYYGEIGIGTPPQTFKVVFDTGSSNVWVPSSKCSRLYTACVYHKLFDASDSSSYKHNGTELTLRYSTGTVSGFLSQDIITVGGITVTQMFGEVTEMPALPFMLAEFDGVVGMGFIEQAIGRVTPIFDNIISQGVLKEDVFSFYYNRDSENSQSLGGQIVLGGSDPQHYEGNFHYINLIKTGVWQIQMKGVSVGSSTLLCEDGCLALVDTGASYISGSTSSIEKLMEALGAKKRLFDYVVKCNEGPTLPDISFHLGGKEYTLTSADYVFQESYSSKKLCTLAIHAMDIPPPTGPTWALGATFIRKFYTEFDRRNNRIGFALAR
Format: biochemical
Description: One experimental method of detecting the action of renin inhibitors is by means of in vitro tests, in which the reduction of the formation of angiotensin I in different systems (human plasma, purified human renin together with synthetic or natural renin substrate) is measured. One in vitro test which is used is the one according to Nussberger et al. (1987) J. Cardiovascular Pharmacol., Vol. 9, p. 39-44 which follows. This test measures the formation of angiotensin I in human plasma. The amount of angiotensin I formed is determined in a subsequent radioimmunoassay. Which action inhibitors have on the formation of angiotensin I is tested in this system by the addition of different concentrations of these substances. The IC50 refers to that concentration of the particular inhibitor which reduces the formation of angiotensin I by 50%.

IC50	SMILES
0.074 to 2.8 µM	COCCCN1CCOc2ccc(CO[C@@H]3CC[C@@H](CC(C)(C)C(=O)NCC4CC4)NC3)cc21 [Example 25, N-Cyclopropylmethyl-3-{(2S,5R)-5-[4-(3-methoxypropyl)-3,4-dihydro-2H-benzo[1,4]oxazin-6-ylmethoxy]piperidin-2-yl}-2,2-dimethylpropionamide]
0.074 to 2.8 µM	COCCCN1CCOc2ccc(CO[C@@H]3CC[C@@H](CC(C)(C)C(=O)NCC(C)(C)C(N)=O)NC3)cc21 [Example 26, N-(2-Carbamoyl-2-methylpropyl)-3-{(2S,5R)-5-[4-(3-methoxypropyl)-3,4-dihydro-2H-benzo[1,4]oxazin-6-ylmethoxy]piperidin-2-yl}-2,2-dimethylpropionamide]
0.074 to 2.8 µM	COCCCOc1cc(CO[C@@H]2CC[C@@H](CC(C)(C)C(=O)NCC3CCOCC3)NC2)ccc1F [Example 42, 3-{(2S,5R)-5-[4-Fluoro-3-(3-methoxypropoxy)benzyloxy]piperidin-2-yl}-2,2-dimethyl-N-(tetrahydropyran-4-ylmethyl)propionamide]
0.074 to 2.8 µM	COCCCN1C(=O)[C@](C)(c2ccccc2)Oc2ccc(CO[C@@H]3CC[C@@H](CC(C)(C)C(=O)NCC4CCOCC4)NC3)cc21 [Example 52, (S)-3-{(2S,5R)-5-[(S)-4-(3-Methoxypropyl)-2-methyl-3-oxo-2-phenyl-3,4-dihydro-2H-benzo[1,4]oxazin-6-ylmethoxy]piperidin-2-yl}-2,2-dimethyl-N-(tetrahydropyran-4-ylmethyl)propionamide]
0.074 to 2.8 µM	COCCCN1CCOc2ccc(CO[C@@H]3CC[C@@H](C[C@@H](NC(=O)CC4CCOCC4)C(C)C)NC3)cc21 [Example 89, N—((R(or S))-1-{(2S,5R)-5-[4-(3-Methoxypropyl)-3,4-dihydro-2H-benzo[1,4]oxazin-6-ylmethoxy]piperidin-2-ylmethyl}-2-methylpropyl)-2-(tetrahydropyran-4-yl)acetamide]
